Patent US9770026B2, “Substituted pyrimidine compound and uses thereof” (Shenyang Sinochem Agrochemicals R&D Co., Ltd., priority 2012, dated 2017)
Read-outs that look alike come from different tables or passages of the source.

Assays:
carmine spider mite = test: bioactivity test against carmine spider mite, airbrush spray; type: in vivo; conditions: Tetranychus cinnabarinus, 72 h; for pest or weed control at 10 µg/mL / pest or weed control at 100 µg/mL / pest or weed control at 600 µg/mL: read-out: Insecticidal activity against carmine spider mite (% )
Outline: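 Broadbean seedlings infested with adult mites were sprayed with compound (acetone/methanol stock diluted in 0.1% Tween 80 water) by airbrush at 0.7 kg/cm^2, 0.5 ml. Three replicates were run. Mortality was scored after 72 hrs.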

cucumber downy mildew = test: protectant activity in vivo against cucumber downy mildew; conditions: Cucumis sativus, 168 h; for pest or weed control at 25 µg/mL: read-out: control effect against cucumber downy mildew (%), 25 mg/L; for pest or weed control at 50 µg/mL: read-out: control effect against cucumber downy mildew (%), 50 mg/L; for pest or weed control at 100 µg/mL: read-out: control effect against cucumber downy mildew (%), 100 mg/L
cucumber gray mold = test: fungicidal activity in vitro (inhibition rate) against cucumber gray mold; type: cell-based; conditions: read-out: inhibition rate against cucumber gray mold
wheat powdery mildew = test: protectant activity in vivo against wheat powdery mildew; conditions: Triticum aestivum, 168 h; for pest or weed control at 400 µg/mL: read-out: control effect against wheat powdery mildew (%), 400 mg/L; for pest or weed control at 400 µg/mL / pest or weed control at 6.25 µg/mL / pest or weed control at 25 µg/mL / pest or weed control at 100 µg/mL: protectant activity; for pest or weed control at 6.25 µg/mL: read-out: control effect against wheat powdery mildew (%), 6.25 mg/L; for pest or weed control at 25 µg/mL: read-out: control effect against wheat powdery mildew (%), 25 mg/L; for pest or weed control at 100 µg/mL: read-out: control effect against wheat powdery mildew (%), 100 mg/L
[1] = test system: Green peach aphids (Myzus Persicae Sulzer); test: bioactivity test against green peach aphid, airbrush foliar spray; type: in vivo; conditions: Myzus persicae, foliar, 48 h
Outline: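 Aphids (15-30 per cabbage leaf disc) on moist filter paper were airbrush-sprayed at 10 psi, 0.5 mL, with compound from acetone:methanol (1:1) diluted in water with 0.1% tween 80. Held at 25±1 C, 60±5% RH; survivors counted after 48 hrs to give death rates.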

corn rust = test: protectant activity in vivo against corn rust; conditions: Zea mays, 168 h; for pest or weed control at 400 µg/mL: read-out: control effect against corn rust (%), 400 mg/L
armyworm = test: bioactivity test against armyworm, airbrush spray; type: in vivo; conditions: 72 h; for pest or weed control at 600 µg/mL: 600 mg/L
Diamond back moth = test: insecticidal activity against diamond back moth, airbrush spray; type: in vivo; conditions: 72 h
Outline: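 Airbrush leaf-disc spray test: both faces of 2 cm cabbage discs received 0.5 ml of test solution at 0.7 kg/cm^2. Solutions were made in acetone:methanol (1:1) and brought to concentration with 0.1% Tween 80 in water. Ten second-instar larvae per disc, triplicates, were held at 25° C and 60˜70% R.H., with mortality recorded at 72 hrs.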

rice blast = test: microbe, parasite or virus in culture; type: cell-based; conditions: Pyricularia oryzae, read-out: inhibition rate against rice blast, 25 ppm, in vitro
[2] = read-out: control effect against cucumber downy mildew (%), 400 mg/L, protectant activity
[3] = 10 mg/L, contrastive test, read-out: Insecticidal activity against peach aphid (%)
[4] = 100 mg/L, contrastive test, read-out: Insecticidal activity against peach aphid (%)
[5] = 600 mg/L, contrastive test, read-out: Insecticidal activity against peach aphid (%)
[6] = read-out: Insecticidal activity against armyworm (%)
[7] = read-out: Insecticidal activity against peach aphid (%)

## FC(F)(F)c1ccc(Oc2ccc(CCNc3ncnc(Cl)c3Cl)cc2)nc1 [CK73, reference compound]
Carmine spider mite; 10 mg/L, contrastive test
  pest or weed control at 10 µg/mL: 24%
Carmine spider mite; 100 mg/L, contrastive test
  pest or weed control at 100 µg/mL: 85%
Carmine spider mite; 600 mg/L, contrastive test
  pest or weed control at 600 µg/mL: 100%
Cucumber downy mildew; protectant activity
  pest or weed control at 25 µg/mL: 60%
  pest or weed control at 50 µg/mL: 95%
  pest or weed control at 100 µg/mL: 98%
Cucumber downy mildew; [2]
  pest or weed control at 400 µg/mL: 98%
Cucumber gray mold; 25 ppm, in vitro
  inhibition at 25 ppm: 0%
Wheat powdery mildew
  pest or weed control at 400 µg/mL: 40%
[1]; [3]
  pest or weed control at 10 µg/mL: 0%
[1]; [4]
  pest or weed control at 100 µg/mL: 100%
[1]; [5]
  pest or weed control at 600 µg/mL: 100%
Corn rust; read-out: control effect against corn rust (%), 6.25 mg/L, protectant activity
  pest or weed control at 6.25 µg/mL: 0%
Corn rust; read-out: control effect against corn rust (%), 25 mg/L, protectant activity
  pest or weed control at 25 µg/mL: 10%
Corn rust; read-out: control effect against corn rust (%), 100 mg/L, protectant activity
  pest or weed control at 100 µg/mL: 90%
Corn rust; protectant activity
  pest or weed control at 400 µg/mL: 100%
armyworm; 10 mg/L, read-out: Insecticidal activity against armyworm (%)
  pest or weed control at 10 µg/mL: 0%
armyworm; 100 mg/L, read-out: Insecticidal activity against armyworm (%)
  pest or weed control at 100 µg/mL: 50%
armyworm; [6]
  pest or weed control at 600 µg/mL: 100%

## N#Cc1ccc(Oc2ccc(CCNc3cc(Cl)ncn3)cc2)nc1 [CK83, reference compound]
Cucumber downy mildew; protectant activity
  pest or weed control at 25 µg/mL: 85%
  pest or weed control at 50 µg/mL: 98%
  pest or weed control at 100 µg/mL: 100%
Cucumber downy mildew; [2]
  pest or weed control at 400 µg/mL: 100%
Cucumber gray mold; 25 ppm, in vitro
  inhibition at 25 ppm: 0%
Wheat powdery mildew
  pest or weed control at 6.25 µg/mL: 40%
  pest or weed control at 25 µg/mL: 70%
  pest or weed control at 100 µg/mL: 100%
  pest or weed control at 400 µg/mL: 100%
[1]; [3]
  pest or weed control at 10 µg/mL: 11%
[1]; [4]
  pest or weed control at 100 µg/mL: 100%
[1]; [5]
  pest or weed control at 600 µg/mL: 100%
Diamond back moth; 600 mg/L
  pest or weed control at 600 µg/mL: 17%
Corn rust; protectant activity
  pest or weed control at 400 µg/mL: 30%
armyworm; [6]
  pest or weed control at 600 µg/mL: 29%

## COc1cc(CCNc2ncnc(C(F)F)c2Cl)ccc1Oc1ccc(Cl)cc1 [II-10583]
Carmine spider mite; 600 ppm, mortality after 72 hrs
  pest or weed control at 600 ppm: 100%
Rice blast
  inhibition at 25 ppm: 80 to 99%
Cucumber downy mildew; read-out: control effect against cucumber downy mildew (%), 6.25 mg/L, protectant activity
  pest or weed control at 6.25 µg/mL: 95%
Cucumber downy mildew; read-out: control effect against cucumber downy mildew (%), 12.5 mg/L, protectant activity
  pest or weed control at 12.5 µg/mL: 95%
Cucumber downy mildew; protectant activity
  pest or weed control at 25 µg/mL: 95%
  pest or weed control at 50 µg/mL: 100%
  pest or weed control at 100 µg/mL: 100%
Cucumber downy mildew; [2]
  pest or weed control at 400 µg/mL: 100%
Cucumber downy mildew; read-out: protectant activity against cucumber downy mildew in vivo, 6.25 ppm
  pest or weed control at 6.25 ppm: 80 to 99%
Cucumber downy mildew; read-out: protectant activity against cucumber downy mildew in vivo, 12.5 ppm
  pest or weed control at 12.5 ppm: 80 to 99%
Cucumber downy mildew; read-out: protectant activity against cucumber downy mildew in vivo, 25 ppm
  pest or weed control at 25 ppm: 80 to 99%
Cucumber downy mildew; read-out: protectant activity against cucumber downy mildew in vivo, 50 ppm
  pest or weed control at 50 ppm: 80 to 99%
Cucumber downy mildew; read-out: protectant activity against cucumber downy mildew in vivo, 100 ppm
  pest or weed control at 100 ppm: 100%
Cucumber downy mildew; read-out: protectant activity against cucumber downy mildew in vivo, 400 ppm
  pest or weed control at 400 ppm: 100%
Wheat powdery mildew
  pest or weed control at 6.25 µg/mL: 100%
  pest or weed control at 25 µg/mL: 100%
  pest or weed control at 100 µg/mL: 100%
  pest or weed control at 400 µg/mL: 100%
Wheat powdery mildew; read-out: protectant activity against wheat powdery mildew in vivo, 6.25 ppm
  pest or weed control at 6.25 ppm: 100%
Wheat powdery mildew; read-out: protectant activity against wheat powdery mildew in vivo, 25 ppm
  pest or weed control at 25 ppm: 100%
Wheat powdery mildew; read-out: protectant activity against wheat powdery mildew in vivo, 100 ppm
  pest or weed control at 100 ppm: 100%
Wheat powdery mildew; read-out: protectant activity against wheat powdery mildew in vivo, 400 ppm
  pest or weed control at 400 ppm: 100%
[1]; [3]
  pest or weed control at 10 µg/mL: 100%
[1]; [4]
  pest or weed control at 100 µg/mL: 100%
[1]; [5]
  pest or weed control at 600 µg/mL: 100%
[1]; 10 ppm, death rate after 48 hrs
  pest or weed control at 10 ppm: 100%
[1]; 100 ppm, death rate after 48 hrs
  pest or weed control at 100 ppm: 100%
[1]; 600 ppm, death rate after 48 hrs
  pest or weed control at 600 ppm: 100%
Diamond back moth; 600 ppm, mortality after 72 hrs, read-out: control (test results against diamond back moth)
  pest or weed control at 600 ppm: 100%
Corn rust; read-out: protectant activity against corn rust in vivo, 25 ppm
  pest or weed control at 25 ppm: 80 to 99%
Corn rust; read-out: protectant activity against corn rust in vivo, 100 ppm
  pest or weed control at 100 ppm: 100%
Corn rust; read-out: protectant activity against corn rust in vivo, 400 ppm
  pest or weed control at 400 ppm: 100%
armyworm; 600 ppm, mortality after 72 h
  pest or weed control at 600 ppm: 100%

## CC(F)c1ncnc(NCCc2ccc(OC(F)(F)F)cc2)c1Cl (stereo not drawn) [flufenerim, reference compound]
Carmine spider mite
  pest or weed control at 10 µg/mL: 72%
  pest or weed control at 100 µg/mL: 100%
  pest or weed control at 600 µg/mL: 100%
Cucumber downy mildew; read-out: control effect against cucumber downy mildew (%)
  pest or weed control at 400 µg/mL: 0%
Cucumber gray mold
  inhibition at 25 ppm: 0%
[1]; [7]
  pest or weed control at 1.25 µg/mL: 37%
  pest or weed control at 2.5 µg/mL: 90%
  pest or weed control at 5 µg/mL: 100%
  pest or weed control at 10 µg/mL: 100%
  pest or weed control at 100 µg/mL: 100%
  pest or weed control at 600 µg/mL: 100%
